The source of these data is US11981669B2, “1,7-naphthyridine derivative and preparation method and use therefor” (CSPC ZHONGQI PHARMACEUTICAL TECHNOLOGY (SHIJIAZHUANG) CO., …, priority 2018, dated 2024).

One data set addresses CYP2D6 (Homo sapiens (Human), UniProt P10635). Kind of data set: CYP enzyme inhibition assay. It counts as in vitro ADME. From the text:
(§1) The compounds of the present disclosure were subjected to the CYP450 enzyme inhibition assay.

In the next data set the target is CYP3A4-M (Homo sapiens (Human), UniProt P08684). Kind of data set: CYP enzyme inhibition assay. It counts as in vitro ADME.
Excerpt: as §1

The target in another data set is CYP2C19 (Homo sapiens (Human), UniProt P33261). Kind of data set: CYP enzyme inhibition assay. The format is in vitro ADME.
Excerpt: as §1

The next data set has as its target CYP2C9 (Homo sapiens (Human), UniProt P11712). The data set is described as follows: CYP enzyme inhibition assay. The format is in vitro ADME.
Excerpt: as §1

Another data set deals with CYP1A2 (Homo sapiens (Human), UniProt P05177). The format is in vitro ADME.
Excerpt: as §1

The subject of data set [1] is Erythropoietin in liver cancer cells Hep3B. Kind of data set: Expression of erythropoietin in liver cancer cells Hep3B in vitro (EPO ELISA of supernatant). It counts as cell-based, Human. How it is done:
The cells were adherent cultured overnight, and after discarding the used medium. In the 96-well culture plate, the cells were washed once with 0.5% FBS-containing DMEM medium. […] 0.5% FBS-containing DMEM medium was used instead of the drug solution as the control well. After incubation in a 37° C., 5% CO2 incubator for 24 h, the supernatant was taken as a sample and frozen at −20° C. for later use. An Elisa kit (abeam) was used to detect EPO in the cell supernatant. A microplate reader was used to detect the OD value at 450/620 nm.
A general note: ELISA stands for enzyme-linked immunosorbent assay.

A further data set has as its system erythropoietin. The data set is described as follows: Expression of erythropoietin in vivo (plasma EPO ELISA after single oral dose).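 As to all read-outs here: male C57 mice given compound by mouth, five animals per treatment group, with EPO in plasma measured by ELISA.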 The conditions noted are these: once; for EPO OD value: plasma 6 hours after administration; for Promotion of expression of erythropoietin in vivo: at 10 mg/kg.
The target of the next data set is hERG channels (Homo sapiens (Human), UniProt Q12809). Kind of data set: cell-based. The conditions noted are these: for Inhibitory effect on hERG current at the highest test concentration: human, 30 μM. The format is cell-based. How it is done:
Whole-cell patch clamp technique was used to record hERG current. A cell suspension was added to a 35 mm Petri dish, and the dish was then placed on an inverted microscope stage. After the adherence of cells, they were perfused with extracellular fluid at a flow rate of 1-2 mL/min. A glass microelectrode was drawn by a microelectrode puller in two steps, and the pipette tip resistance was between 2-5 MΩ. After establishing the whole cell recording, the clamp potential was held at −80 mV, followed by depolarization to +60 mV when given voltage stimulation and then repolarization to −50 mV to elicit hERG tail current. All recordings were performed after the current was stable. Extracellular perfusion administration started from a low concentration, staying for 5-10 min at each concentration until the current was stable, and then cells were further perfused with the next concentration.

For the next data set, the system named is reticulocytes. Kind of data set: Effect on reticulocytes of normal mice. The format is in vivo, Balb/c mice. On the set-up: Reticulocytes (RETIC), average: unit not given here. The conditions noted are these: 10 mg/kg p.o., once; 72 h after administration. As to the method:
72 Balb/c mice, male, were divided into 12 groups, 6 mice in each treatment group. In the positive drug control groups: the mice in the FG-4592 treatment groups were orally administered once, at two doses of 10 mg/kg and 50 mg/kg, and the mice in the rhEPO treatment group was intraperitoneaily injected once, at a dose of 100 IU/kg. The compounds of the present disclosure were all orally administered once at a dose of 10 mg/kg. 72 h after the administration, blood was collected from the orbit of all animals, and subjected to EDTA-K2 anticoagulation. Then reticulocytes (RETIC) were counted with an automatic blood cell analyzer.

The next data set deals with HIF-1α. The data set is described as follows: Expression of HIF-1α protein in Hep3B cells (western blot, grayscale analysis). The format is cell-based, Human. The conditions noted are these: for fold induction at 30 µM: Homo sapiens, read-out: HIF-1α level of the compound of the present disclosure/HIF-1α level of blank control. How it is done:
(§2) A test compound was dissolved in dimethyl sulfoxide into a 100 mM stock solution, and then was diluted with 0.5% FBS-containing DMEM medium into 30 μM, 10 μM and 3 μM for later use. Human liver cancer cells Hep3B were seeded in a six-well plate at a density of 2.25*10^5 cells/well, 2 mL per well. After cultivation overnight, the cells were treated with compounds at different concentrations for 2 h. The proteins were extracted for western blot and further grayscale analysis.

The test system of the next data set is HIF-2α. The data set is described as follows: Expression of HIF-2α protein in Hep3B cells (western blot, grayscale analysis). The format is cell-based, Human. The conditions noted are these: for fold induction at 30 µM: Homo sapiens, read-out: HIF-2α level of the compound of the present disclosure/HIF-2α level of blank control. How it is done:
as §2
On the technique in general: Immunoblotting shows a protein as a band on a membrane.

In the next data set the target is PHD3 (Homo sapiens (Human), UniProt Q9H6Z9). Kind of data set: PHD enzyme assay (Eu-VBC TR-fluorescence). It counts as biochemical. How it is done:
(§3) VHL/elongin B/elongin C were constructed, expressed and purified, and VHL was labeled. PHD1, PHD2 and PHD3 were constructed, expressed and purified. VBC protein was labeled with DELFIA Eu-Labeling Kit. A NeutrAvidin 96-well plate was blocked after the addition of 200 μL Blocker Casein to each well, followed by incubation for 30 min. Each well was washed 3 times by adding 200 μL of washing buffer each time. A 200 nM HIF-1a 556-574 solution was prepared with washing buffer, and 100 μL of the solution was added to each well, followed by incubation for 60 min. Each well was washed 3 times by adding 200 μL of washing buffer each time. A 1 mM Biotin solution was prepared with Blocker Casein, and 100 μL of the solution was added to each well, followed by incubation for 30 min. Each well was washed 3 times by adding 200 μL of washing buffer each time. A 20× compound solution was prepared with PHD reaction buffer, with the final concentration of DMSO being 1%. PHD solutions were prepared with PHD reaction buffer, and the concentrations of PHD1, 2, and 3 solutions were 10 ng/μL, 5 ng/μL, and 15 ng/μL, respectively. 95 μL of the PHD solution was added to each compound well, followed by the addition of 5 μL of the compound solution, 95 μL of the PHD solution was added to each full active well, followed by the addition of 5 μL of the PHD reaction buffer; and 100 μL of the PHD reaction buffer was added to each blank well. After mixing homogeneously, the wells were incubated for 60 min. Each well was washed 3 times by adding 200 μL of washing buffer each time A 1 ng/μL Eu-VBC solution was prepared with Eu-VBC binding buffer, and 100 μL of the solution was added to each well, followed by incubation for 60 min. Each well was washed 6 times by adding 200 μL DELFIA Wash Concentrate each time. 100 μL DELFIA Enhancement Solution was added to each well. A microplate reader was used to read TR-Fluorescence at Ex340 and Em615. The flurescence of the sample wells was recorded as FLUsample, the flurescence of the full active wells was recorded as FLU100%, and the flurescence of the blank well was recorded as FLU0%.

A further data set has as its target PHD1 (Homo sapiens (Human), UniProt Q96KS0). Kind of data set: PHD enzyme assay (Eu-VBC TR-fluorescence). It counts as biochemical. As to the method: as §3
The mark [2] stands for this setting: 2 h, compound at 30 μM, 10 μM and 3 μM.

Structures are written as SMILES. Where only a bound is given, the exact number is not on record here.

CYP2C19, sequence (P33261 whole entry): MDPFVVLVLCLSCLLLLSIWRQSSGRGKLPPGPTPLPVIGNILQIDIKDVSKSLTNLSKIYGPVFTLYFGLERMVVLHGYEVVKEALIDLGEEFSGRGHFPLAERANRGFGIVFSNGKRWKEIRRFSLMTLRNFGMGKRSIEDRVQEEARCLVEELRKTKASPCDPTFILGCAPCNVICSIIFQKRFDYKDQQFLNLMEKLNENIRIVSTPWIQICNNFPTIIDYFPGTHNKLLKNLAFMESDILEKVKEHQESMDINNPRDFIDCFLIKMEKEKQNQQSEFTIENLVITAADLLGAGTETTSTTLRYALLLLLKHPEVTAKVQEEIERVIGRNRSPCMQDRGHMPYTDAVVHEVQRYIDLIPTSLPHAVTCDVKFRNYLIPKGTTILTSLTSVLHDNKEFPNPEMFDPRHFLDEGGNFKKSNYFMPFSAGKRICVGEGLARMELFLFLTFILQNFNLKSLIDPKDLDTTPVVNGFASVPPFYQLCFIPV
CYP2D6, sequence (P10635 whole entry): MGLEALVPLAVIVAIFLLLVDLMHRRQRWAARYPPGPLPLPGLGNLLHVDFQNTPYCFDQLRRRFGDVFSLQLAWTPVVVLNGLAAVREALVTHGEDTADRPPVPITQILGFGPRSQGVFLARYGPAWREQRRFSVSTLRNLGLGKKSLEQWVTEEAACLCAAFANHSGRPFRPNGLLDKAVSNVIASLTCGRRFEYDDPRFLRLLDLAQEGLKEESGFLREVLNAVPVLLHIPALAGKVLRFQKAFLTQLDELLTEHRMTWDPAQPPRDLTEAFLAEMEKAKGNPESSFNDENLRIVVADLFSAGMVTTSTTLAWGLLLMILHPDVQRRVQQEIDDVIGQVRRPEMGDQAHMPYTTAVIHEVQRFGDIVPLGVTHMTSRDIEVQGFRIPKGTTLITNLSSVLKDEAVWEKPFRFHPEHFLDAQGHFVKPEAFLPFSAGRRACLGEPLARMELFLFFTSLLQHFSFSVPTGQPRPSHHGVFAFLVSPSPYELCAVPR
CYP3A4-M, sequence (P08684 whole entry): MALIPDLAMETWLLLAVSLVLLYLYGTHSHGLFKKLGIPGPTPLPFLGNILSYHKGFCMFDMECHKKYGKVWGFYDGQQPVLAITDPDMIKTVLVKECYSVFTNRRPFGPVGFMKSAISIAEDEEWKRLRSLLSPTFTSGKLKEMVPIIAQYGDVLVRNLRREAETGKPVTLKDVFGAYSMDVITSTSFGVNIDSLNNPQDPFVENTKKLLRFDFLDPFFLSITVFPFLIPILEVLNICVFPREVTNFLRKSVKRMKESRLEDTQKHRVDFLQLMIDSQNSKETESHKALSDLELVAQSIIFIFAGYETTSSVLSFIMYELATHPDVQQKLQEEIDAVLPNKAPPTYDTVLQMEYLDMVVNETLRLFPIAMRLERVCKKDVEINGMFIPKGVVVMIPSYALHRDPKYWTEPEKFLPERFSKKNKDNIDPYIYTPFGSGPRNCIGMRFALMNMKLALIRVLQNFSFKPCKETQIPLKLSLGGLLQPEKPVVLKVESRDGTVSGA
hERG channels, sequence (Q12809 whole entry, the tested form may be a part): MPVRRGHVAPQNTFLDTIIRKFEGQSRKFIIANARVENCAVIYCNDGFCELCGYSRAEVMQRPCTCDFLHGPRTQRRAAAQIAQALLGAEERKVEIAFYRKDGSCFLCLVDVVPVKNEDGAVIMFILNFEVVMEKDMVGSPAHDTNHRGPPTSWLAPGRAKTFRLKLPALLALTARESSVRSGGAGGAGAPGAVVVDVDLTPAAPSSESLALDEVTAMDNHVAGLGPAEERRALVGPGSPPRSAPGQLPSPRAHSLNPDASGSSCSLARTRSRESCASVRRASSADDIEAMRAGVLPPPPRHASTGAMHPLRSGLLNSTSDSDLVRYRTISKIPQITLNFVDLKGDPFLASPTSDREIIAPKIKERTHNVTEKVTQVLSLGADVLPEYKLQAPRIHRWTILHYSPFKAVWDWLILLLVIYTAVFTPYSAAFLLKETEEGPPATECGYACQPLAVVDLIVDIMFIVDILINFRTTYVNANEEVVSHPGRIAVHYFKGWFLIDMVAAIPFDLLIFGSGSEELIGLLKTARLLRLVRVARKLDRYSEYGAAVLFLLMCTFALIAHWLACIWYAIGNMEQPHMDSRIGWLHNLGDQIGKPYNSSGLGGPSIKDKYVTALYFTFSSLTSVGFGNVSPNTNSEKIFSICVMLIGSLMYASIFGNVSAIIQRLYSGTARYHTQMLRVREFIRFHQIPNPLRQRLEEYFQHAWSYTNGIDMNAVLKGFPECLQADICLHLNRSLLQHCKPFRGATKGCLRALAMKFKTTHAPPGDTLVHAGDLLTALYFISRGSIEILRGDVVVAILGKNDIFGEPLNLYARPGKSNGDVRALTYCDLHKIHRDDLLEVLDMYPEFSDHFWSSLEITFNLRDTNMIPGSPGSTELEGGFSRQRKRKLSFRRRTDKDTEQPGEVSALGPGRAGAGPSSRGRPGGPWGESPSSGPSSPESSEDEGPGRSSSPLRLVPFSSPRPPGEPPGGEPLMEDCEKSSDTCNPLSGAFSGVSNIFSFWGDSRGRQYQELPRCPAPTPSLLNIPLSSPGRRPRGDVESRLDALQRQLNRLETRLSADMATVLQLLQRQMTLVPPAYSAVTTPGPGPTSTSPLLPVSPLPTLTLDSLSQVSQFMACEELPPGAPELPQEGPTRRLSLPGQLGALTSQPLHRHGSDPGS
CYP2C9, sequence (P11712 whole entry): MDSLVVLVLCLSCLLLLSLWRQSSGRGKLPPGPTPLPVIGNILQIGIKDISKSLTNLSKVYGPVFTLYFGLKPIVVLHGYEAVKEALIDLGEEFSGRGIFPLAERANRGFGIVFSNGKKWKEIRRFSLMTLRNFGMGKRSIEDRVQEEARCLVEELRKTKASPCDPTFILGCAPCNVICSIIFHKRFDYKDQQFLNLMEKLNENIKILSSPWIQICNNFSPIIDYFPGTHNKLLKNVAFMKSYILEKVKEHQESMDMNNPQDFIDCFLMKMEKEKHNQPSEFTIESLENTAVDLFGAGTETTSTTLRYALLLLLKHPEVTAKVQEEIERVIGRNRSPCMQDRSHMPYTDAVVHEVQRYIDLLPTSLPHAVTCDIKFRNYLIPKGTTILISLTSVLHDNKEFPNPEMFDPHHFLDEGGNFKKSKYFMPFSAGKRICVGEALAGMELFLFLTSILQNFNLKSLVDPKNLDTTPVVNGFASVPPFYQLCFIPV
CYP1A2, sequence (P05177 whole entry): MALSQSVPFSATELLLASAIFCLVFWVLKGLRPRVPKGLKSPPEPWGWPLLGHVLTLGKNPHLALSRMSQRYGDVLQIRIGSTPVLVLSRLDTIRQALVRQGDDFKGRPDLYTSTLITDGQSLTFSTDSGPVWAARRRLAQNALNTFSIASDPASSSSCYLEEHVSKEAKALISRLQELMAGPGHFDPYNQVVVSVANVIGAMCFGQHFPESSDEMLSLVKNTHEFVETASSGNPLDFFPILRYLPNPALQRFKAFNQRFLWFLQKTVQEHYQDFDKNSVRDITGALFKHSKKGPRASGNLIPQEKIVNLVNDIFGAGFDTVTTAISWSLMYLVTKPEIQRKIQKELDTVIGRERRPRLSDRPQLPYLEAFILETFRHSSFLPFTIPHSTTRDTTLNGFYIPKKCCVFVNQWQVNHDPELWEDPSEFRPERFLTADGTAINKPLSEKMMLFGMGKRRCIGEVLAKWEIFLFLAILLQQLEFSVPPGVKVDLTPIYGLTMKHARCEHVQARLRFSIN
PHD1, sequence (Q96KS0 whole entry): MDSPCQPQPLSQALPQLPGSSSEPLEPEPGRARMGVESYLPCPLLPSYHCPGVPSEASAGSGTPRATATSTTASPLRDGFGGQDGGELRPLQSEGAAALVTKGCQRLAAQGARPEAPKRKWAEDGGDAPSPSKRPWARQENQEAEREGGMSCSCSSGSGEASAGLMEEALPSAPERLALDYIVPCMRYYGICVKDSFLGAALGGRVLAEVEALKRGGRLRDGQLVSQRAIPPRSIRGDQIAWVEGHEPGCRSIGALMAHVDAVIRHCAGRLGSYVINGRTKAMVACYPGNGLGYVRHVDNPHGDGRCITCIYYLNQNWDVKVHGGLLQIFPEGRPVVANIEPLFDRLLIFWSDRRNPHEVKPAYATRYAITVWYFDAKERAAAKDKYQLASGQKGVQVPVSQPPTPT
PHD3, sequence (Q9H6Z9 whole entry): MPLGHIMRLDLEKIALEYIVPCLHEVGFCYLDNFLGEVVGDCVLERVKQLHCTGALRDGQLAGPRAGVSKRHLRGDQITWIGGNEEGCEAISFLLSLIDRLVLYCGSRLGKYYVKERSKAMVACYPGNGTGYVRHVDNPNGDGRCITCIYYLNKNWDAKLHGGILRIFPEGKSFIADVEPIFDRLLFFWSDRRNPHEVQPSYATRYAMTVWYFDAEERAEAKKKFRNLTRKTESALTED

By IC50 is commonly meant the concentration that gives 50% inhibition. For `O=C(O)CNC(=O)c1nc(Cl)c2nc(Oc3ccccc3Cl)ccc2c1O` [Link-124, 2-(2-(2-chlorophenoxy)-5-hydroxy-8-chloro-1,7-naphthyridine-6-formamido) Acetic Acid], the concentration for half-maximal inhibition (IC50) at CYP2D6 is more than 50 µM; against CYP3A4-M it was more than 50 µM; against CYP2C19 it was more than 50 µM; against CYP2C9, more than 50 µM; against CYP1A2 it was more than 50 µM; on hERG channels, more than 30 µM. In data set [1], the “EPO-enhancing effect compared with positive control drug FG4592” value is “higher than that of the positive control drug FG4592”. The “EPO OD value” in the data set with erythropoietin (10 mg/kg) and in the data set on erythropoietin (50 mg/kg) was “D (D represents EPO OD value>3)” in each case. Moreover, the “Promotion of expression of erythropoietin in vivo” value (shortened to “Promotion”) in the data set with erythropoietin was “significantly promote the expression of erythropoietin”. Besides, on hERG channels, the “Inhibitory effect on hERG current at the highest test concentration” value (shortened to “Inhibitory effect on hERG current”) is given as “far from the IC50 value”. The “Reticulocytes (RETIC), average” value in the data set with reticulocytes was found to be 6.80. In addition, the “HIF-1α protein expression compared with blank control” value with HIF-1α is “higher than that of the blank control”. Besides, the fold induction at 30 µM with HIF-1α (setting [2]) and in the data set with HIF-2α (setting [2]) was 4.5 to 8.5 throughout. Further, the “HIF-2α protein expression compared with blank control” value in the data set on HIF-2α is “higher than that of the blank control”.
As to `O=C(O)CNC(=O)c1ncc2nc(Oc3ccccc3)ccc2c1O` [Comparative Example 2, 2-(5-hydroxy-2-phenoxy-1,7-naphthyridine-6-formamido) acetic acid, reference compound], the IC50 came to 492 nM at PHD3 and 335 nM at PHD1.
On to `O=C(O)CNC(=O)c1nc(Br)c2nc(Oc3ccccc3Cl)ccc2c1O` [Link-125, 2-(2-(2-chlorophenoxy)-5-hydroxy-8-bromo-1,7-naphthyridine-6-formamido) Acetic Acid], for which the half-inhibitory concentration (IC50) was more than 50 µM against CYP2D6; more than 50 µM at CYP3A4-M; more than 50 µM against CYP2C19; more than 50 µM on CYP2C9; more than 50 µM against CYP1A2; more than 30 µM on hERG channels. Besides, the “EPO OD value” in the data set with erythropoietin (10 mg/kg) is “A (A represents 1.0<EPO OD value<1.5)”; in the data set with erythropoietin (50 mg/kg), “D (D represents EPO OD value>3)”. On hERG channels, the “Inhibitory effect on hERG current” value is on record as “far from the IC50 value”. Also, the “Reticulocytes (RETIC), average” value in the data set with reticulocytes amounted to 5.62. Besides, the “HIF-1α protein expression compared with blank control” value in the data set on HIF-1α is listed as “higher than that of the blank control”. The fold induction at 30 µM was in the range of 4.5 to 8.5 in the data set on HIF-1α (setting [2]) and 1 to 4.5 with HIF-2α (setting [2]). In addition, the “HIF-2α protein expression compared with blank control” value in the data set on HIF-2α is “higher than that of the blank control”.
On to `O=C(O)CNC(=O)c1nc(Br)c2nc(Oc3ccc(Cl)cc3)ccc2c1O` [Link-129, 2-(2-(4-chlorophenoxy)-5-hydroxy-8-bromo-1,7-naphthyridine-6-formamido) Acetic Acid], for which the concentration for half-maximal inhibition (IC50) against CYP2D6 was more than 50 µM; against CYP3A4-M, more than 50 µM; against CYP2C19, more than 50 µM; on CYP2C9 it was more than 50 µM; against CYP1A2 it was more than 50 µM; on hERG channels it was more than 30 µM. The “EPO OD value” in the data set with erythropoietin (10 mg/kg) and with erythropoietin (50 mg/kg) was “D (D represents EPO OD value>3)” throughout. For the same compound, the “Promotion” value in the data set on erythropoietin is listed as “significantly promote the expression of erythropoietin”. The “Inhibitory effect on hERG current” value at hERG channels is given as “far from the IC50 value”. The “Reticulocytes (RETIC), average” value with reticulocytes is reported as 7.30. Also, the “HIF-1α protein expression compared with blank control” value in the data set with HIF-1α was “higher than that of the blank control”. Further, the fold induction at 30 µM with HIF-1α (setting [2]) and with HIF-2α (setting [2]) was 1 to 4.5 each time. For the same compound, the “HIF-2α protein expression compared with blank control” value in the data set on HIF-2α was “higher than that of the blank control”.
With `O=C(O)CNC(=O)c1nc(Cl)c2cc(Oc3ccccc3)ccc2c1O` [Comparative Example 1, reference compound], the IC50 against PHD3 came to 561 nM; on PHD1, 273 nM.
For `O=C(O)CNC(=O)c1nc(Cl)c2nc(Oc3ccc(F)cc3)ccc2c1O` [Link-130, 2-(2-(4-fluorophenoxy)-5-hydroxy-8-chloro-1,7-naphthyridine-6-formamido) Acetic Acid], in data set [1], the “EPO-enhancing effect compared with positive control drug FG4592” value is “higher than that of the positive control drug FG4592”. Further, in data set [1] (24 h, compound at 100 μM and 10 μM, supernatant ELISA), the “EPO level of the compound of the present disclosure/EPO level of FG4592” value is “C (C represents EPO ratio ≥ 1.3)”. Also, the “EPO OD value” in the data set on erythropoietin (10 mg/kg) is recorded as “C (C represents 2<EPO OD value<3)”; in the data set on erythropoietin (50 mg/kg), “D (D represents EPO OD value>3)”. The “Promotion” value in the data set on erythropoietin is “significantly promote the expression of erythropoietin”. The “HIF-1α protein expression compared with blank control” value with HIF-1α was “higher than that of the blank control”. Besides, the “HIF-1α level of the compound of the present disclosure/HIF-1α level of blank control” value in the data set on HIF-1α (setting [2]) was “B (B represents 4.5 < protein ratio < 8.5)”. For the same compound, the “HIF-2α protein expression compared with blank control” value in the data set on HIF-2α was “higher than that of the blank control”. In addition, in the data set with HIF-2α (setting [2]), the “HIF-2α level of the compound of the present disclosure/HIF-2α level of blank control” value was “B (B represents 4.5 < protein ratio < 8.5)”.
